Data reported in article PMC12434519.
Where two headings read alike, the source gives them in different places.

How the values were obtained:
human RNMT-RAM complex = human RNMT-RAM complex (Homo sapiens, UniProt O43148); assay: Biochemical activity assay for the human RNMT-RAM complex (MTase-Glo); conditions: for IC50: LUM % inhibition, read-out: hRNMT-RAM inhibition: IC50; for hRNMT-RAM inhibition: Hill slope: fit of concentration-response curve; for Emax: read-out: hRNMT-RAM inhibition: Maximum response
Sequence of human RNMT-RAM complex (O43148 whole entry): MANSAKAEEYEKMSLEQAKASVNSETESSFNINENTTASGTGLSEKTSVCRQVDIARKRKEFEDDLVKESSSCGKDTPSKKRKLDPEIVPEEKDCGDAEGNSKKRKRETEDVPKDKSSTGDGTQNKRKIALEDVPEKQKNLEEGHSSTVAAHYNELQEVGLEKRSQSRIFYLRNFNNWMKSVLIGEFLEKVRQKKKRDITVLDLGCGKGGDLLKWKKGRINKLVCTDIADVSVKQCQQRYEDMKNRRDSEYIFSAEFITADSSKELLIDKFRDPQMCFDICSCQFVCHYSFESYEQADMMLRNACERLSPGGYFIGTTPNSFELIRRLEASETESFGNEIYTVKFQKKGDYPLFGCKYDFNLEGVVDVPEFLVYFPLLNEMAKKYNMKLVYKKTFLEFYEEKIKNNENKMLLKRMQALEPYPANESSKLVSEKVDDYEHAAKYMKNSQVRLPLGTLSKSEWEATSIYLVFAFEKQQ
Sequence of human RNMT-RAM complex (Q9BTL3 whole entry partner): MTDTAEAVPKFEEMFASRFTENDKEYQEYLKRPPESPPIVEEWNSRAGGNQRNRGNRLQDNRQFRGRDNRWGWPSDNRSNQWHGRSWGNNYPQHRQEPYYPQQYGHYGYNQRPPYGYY

ZIKV NS5 = ZIKV NS5 (Zika virus, UniProt Q32ZE1); assay: Biochemical activity assay for ZIKV NS5 MTase (MTase-Glo); conditions: for Emax: 0.75 h, read-out: ZIKV NS5 inhibition: Maximum measured; for ZIKV NS5 inhibition: Hill slope: fit of concentration-response curve
Sequence of ZIKV NS5 (Q32ZE1 2517-2781): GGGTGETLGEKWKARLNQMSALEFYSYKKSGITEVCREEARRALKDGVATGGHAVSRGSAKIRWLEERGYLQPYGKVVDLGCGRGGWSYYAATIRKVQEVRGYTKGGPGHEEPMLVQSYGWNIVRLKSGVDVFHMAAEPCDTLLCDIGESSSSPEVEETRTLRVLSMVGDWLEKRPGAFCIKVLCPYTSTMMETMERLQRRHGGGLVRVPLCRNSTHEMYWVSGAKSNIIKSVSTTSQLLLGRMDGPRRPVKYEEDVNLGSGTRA
Method: final concentration, lab stock) during dialysis at 4 °C overnight against a buffer containing 50 mM Tris-HCl, pH 7.5, 20 mM imidazole, 500 mM NaCl, and 1 mM dithiothreitol (DTT). To remove the His6-SUMO tag, the protein sample was mixed with cOmplete His-Tag purification resin (Roche), incubated for 2 h at 4 °C, and loaded onto a gravity flow column. Since the His6-SUMO tag bound to the column material, the flow-through was collected containing untagged target protein. The target protein was further purified by a Superdex200 10/300 gel filtration column (GE Healthcare) in buffer (20 mM Tris-HCl, pH 7.5, 500 mM NaCl, 1 mM DTT). Fractions were analyzed by SDS-PAGE and Coomassie staining. Protein-containing fractions were pooled, flash-frozen in liquid nitrogen, and stored at -80 °C. […]
in 1X NSP14 reaction buffer (50 mM Tris-HCl, pH 7.5, 6 mM KCl, 1.25 mM MgCl2, 1 mM DTT, and 0.01% Tween-20) in a total reaction volume of 16 µl in absence or presence of increasing inhibitor compound concentrations for 45 min at 37 °C. SAH production was monitored using the bioluminescence-based MTase-Glo™ Methyltransferase Assay kit (Promega) following manufacturer’s instructions. The luminescence signal of each reaction was recorded in relative light units (RLUs) using a Synergy Neo plate reader (BioTek, Winooski, VT). […] IC50 values (mean from at least 3 independent experiments) were calculated using the GraphPad Prism software (Version 10.1.1) and a four-parameter logistic regression.
Biochemical activity assays for the human RNMT-RAM complex and ZIKV NS5 MTases Activity assays were performed in 1x NSP14 reaction buffer. For hRNMT-RAM, we used 15 nM enzyme, 2.5 µM GpppG and 2 µM SAM. For ZIKV NS5, we used 25 nM enzyme, 3 µM […]
Gppp[…]3, and 5 µM SAM. The enzymatic reaction was initiated with the addition of the enzyme in assay buffer and incubated at RT or 37 °C for 45 min, respectively. SAH was detected using the MTase-Glo™ assay.
Differential scanning fluorimetry (DSF)

[1] = SAH counterscreen inhibition (counterscreen of the MTase-Glo luminescence readout); conditions: for SAH counterscreen inhibition: Maximum response / IC50: LUM % inhibition; for SAH counterscreen inhibition: Hill slope: fit of concentration-response curve; for IC50: read-out: SAH counterscreen inhibition: IC50
SARS-CoV-2 = tested on: SARS-CoV-2; parameters: method as in PMID 39663451; conditions: transgenic mouse model; efficacy comparable to nirmatrelvir; cited from earlier work

O=C(Cn1cccc(-c2nc(-c3ccccc3)no2)c1=O)Nc1ccc(F)cc1F [RU-0833868, Fc1c(NC(=O)CN2C=CC=C(c3nc(c4ccccc4)no3)C2=O)ccc(F)c1]
IC50 (human RNMT-RAM complex): > 250 µM | hRNMT-RAM inhibition: Hill slope (human RNMT-RAM complex): 3.14 | Emax (human RNMT-RAM complex): 5.14% | Emax (ZIKV NS5; LUM % inhibition): 64.4% | ZIKV NS5 inhibition: Hill slope (ZIKV NS5): 0.969 | IC50 (ZIKV NS5; selectivity assay, read-out: ZIKV NS5 inhibition IC50): 122 µM | SAH counterscreen inhibition: Maximum response [1]: 21.5% | SAH counterscreen inhibition: Hill slope [1]: 19.2 | IC50 [1]: > 125 µM

Cc1nc(C)c(C(=O)NCc2ccc(CNC(=O)c3ccc(O)c(F)c3)cc2)nc1C [RU-0834080, CC1=NC(C)=C(C)N=C1C(=O)NCC1=CC=C(CNC(=O)C2=CC(F)=C(O)C=C2)C=C1]
IC50 (human RNMT-RAM complex): > 250 µM | hRNMT-RAM inhibition: Hill slope (human RNMT-RAM complex): 1.28 | Emax (human RNMT-RAM complex): 23.1% | Emax (ZIKV NS5; LUM % inhibition): 18.4% | IC50 (ZIKV NS5; LUM % inhibition): > 250 µM | ZIKV NS5 inhibition: Hill slope (ZIKV NS5): 1.81 | SAH counterscreen inhibition: Maximum response [1]: 16.2% | SAH counterscreen inhibition: Hill slope [1]: -2.71 | IC50 [1]: > 125 µM

Cc1ccc(C)c(C(=O)NCC2CCC3(CN(C(=O)c4cc(C)c(O)c(C)c4)C3)O2)c1C (stereo not shown) [RU-0834178, CC1=CC(C(=O)N2CC3(C2)CCC(CNC(=O)C2=C(C)C=CC(C)=C2C)O3)=CC(C)=C1O]
IC50 (human RNMT-RAM complex): > 250 µM | hRNMT-RAM inhibition: Hill slope (human RNMT-RAM complex): 13.1 | Emax (human RNMT-RAM complex): 3.1% | Emax (ZIKV NS5; LUM % inhibition): 20.5% | IC50 (ZIKV NS5; LUM % inhibition): > 250 µM | ZIKV NS5 inhibition: Hill slope (ZIKV NS5): 0.402 | SAH counterscreen inhibition: Maximum response [1]: 18.2% | SAH counterscreen inhibition: Hill slope [1]: -6.31 | IC50 [1]: > 125 µM

Cc1nccc(C(=O)NCC2CCC3(CN(C(=O)c4cc(C)c5[nH]ncc5c4)C3)O2)c1C (stereo not shown) [RU-0834173, CC1=C2C(=CC(C(=O)N3CC4(C3)CCC(CNC(=O)C3=C(C)C(C)=NC=C3)O4)=C1)C=NN2]
IC50 (human RNMT-RAM complex): > 250 µM | hRNMT-RAM inhibition: Hill slope (human RNMT-RAM complex): 1.99 | Emax (human RNMT-RAM complex): 3.36% | Emax (ZIKV NS5; LUM % inhibition): 10.3% | IC50 (ZIKV NS5; LUM % inhibition): > 250 µM | ZIKV NS5 inhibition: Hill slope (ZIKV NS5): 20.4 | SAH counterscreen inhibition: Maximum response [1]: 12.6% | SAH counterscreen inhibition: Hill slope [1]: -9.25 | IC50 [1]: > 125 µM

Cc1c(S(=O)(=O)N2CCc3[nH]ncc3C2)cc(C(=O)NCc2c(F)ccc3occc23)n1C [TDI-015051]
Inhibition of viral replication in vivo (SARS-CoV-2): inhibited viral replication

Cc1cnc(C(=O)NCc2ccc(CNC(=O)c3ccc(O)c(C)c3)cc2)c(C)c1 [RU-0834201, CC1=CC(C)=C(C(=O)NCC2=CC=C(CNC(=O)C3=CC=C(O)C(C)=C3)C=C2)N=C1]
IC50 (human RNMT-RAM complex): > 250 µM | hRNMT-RAM inhibition: Hill slope (human RNMT-RAM complex): 35.3 | Emax (human RNMT-RAM complex): 6.56% | Emax (ZIKV NS5; LUM % inhibition): 12.1% | IC50 (ZIKV NS5; LUM % inhibition): > 250 µM | ZIKV NS5 inhibition: Hill slope (ZIKV NS5): 0.157 | SAH counterscreen inhibition: Maximum response [1]: 14.6% | SAH counterscreen inhibition: Hill slope [1]: -59.4 | IC50 [1]: > 125 µM

Cc1cccc(C(=O)NCC2CCC3(CN(C(=O)c4cc(C)c5[nH]ncc5c4)C3)O2)c1F (stereo not shown) [RU-0834174, CC1=CC(C(=O)N2CC3(C2)CCC(CNC(=O)C2=CC=CC(C)=C2F)O3)=CC2=C1NN=C2]
IC50 (human RNMT-RAM complex): > 250 µM | hRNMT-RAM inhibition: Hill slope (human RNMT-RAM complex): 0.374 | Emax (human RNMT-RAM complex): 26.5% | Emax (ZIKV NS5; LUM % inhibition): 12.9% | IC50 (ZIKV NS5; LUM % inhibition): > 250 µM | ZIKV NS5 inhibition: Hill slope (ZIKV NS5): 1.95 | SAH counterscreen inhibition: Maximum response [1]: 16.2% | SAH counterscreen inhibition: Hill slope [1]: -17 | IC50 [1]: > 125 µM

CCn1nc(C)c(C(=O)NCCc2ccc(CNC(=O)c3ccc4[nH]ncc4c3)cc2)c1C [RU-0834081, CCN1N=C(C)C(C(=O)NCCC2=CC=C(CNC(=O)C3=CC4=C(C=C3)NN=C4)C=C2)=C1C]
IC50 (human RNMT-RAM complex): > 250 µM | hRNMT-RAM inhibition: Hill slope (human RNMT-RAM complex): 0.243 | Emax (human RNMT-RAM complex): 15.2% | Emax (ZIKV NS5; LUM % inhibition): 15.9% | IC50 (ZIKV NS5; LUM % inhibition): > 250 µM | ZIKV NS5 inhibition: Hill slope (ZIKV NS5): 4.21 | SAH counterscreen inhibition: Maximum response [1]: 11.2% | SAH counterscreen inhibition: Hill slope [1]: 6.42 | IC50 [1]: > 125 µM
